These results are taken from US4783530A, “8-arylxanthines” (priority 1987, dated 1988).

SMILES strings stand for the structures. Values after ≈ are worked out from the molar mass of the structure shown. Counter-ions that a name gives are not always drawn. Like-named read-outs stand apart in the source and are kept apart here. Bounds are passed on as bounds.

One series has as its system adenosine receptors. The conditions noted are these: Daly et al. J. Med. Chem. 1985; cited from earlier work.
The next series relates to guinea pig thymocytes. The conditions noted are these: less potent than 8-phenyltheophylline; NECA-induced cyclic AMP accumulation; cited from earlier work.
Series [1] addresses T1, adenosine receptor sites on guinea pig cortical membranes (Cavia porcellus, UniProt P47745).
T1 sequence (P47745 1-326): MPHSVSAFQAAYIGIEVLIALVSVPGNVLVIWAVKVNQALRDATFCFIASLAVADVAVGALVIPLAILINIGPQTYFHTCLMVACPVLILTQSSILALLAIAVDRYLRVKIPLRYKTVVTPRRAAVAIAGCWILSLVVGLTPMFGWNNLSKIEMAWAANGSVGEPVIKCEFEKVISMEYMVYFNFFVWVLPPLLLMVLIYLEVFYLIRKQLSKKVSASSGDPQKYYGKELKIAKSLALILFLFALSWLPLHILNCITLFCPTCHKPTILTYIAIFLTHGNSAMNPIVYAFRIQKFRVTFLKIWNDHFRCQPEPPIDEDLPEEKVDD
Kind of series: Adenosine Receptor Binding Assay, inhibition of specific [^3 H]-cyclohexyladenosine ([^3 H]CHA) binding. The conditions noted are these: 4 nM [^3 H]CHA, 120 minutes at 23° C.
Method: Adenosine Receptor Binding Assay. The potency of 8-arylxanthine compounds to inhibit the specific binding of [^3 H]-cyclohexyladenosine ([^3 H]CHA) to adenosine receptor sites on guinea pig cortical membranes was examined using standard in vitro ligand binding techniques. […] Briefly, guinea pig cortical tissue was homogenized in ice cold 50 mM Tris HCl buffer (pH 7.4) using a Brinkman Polytron. The homogenate was centrifuged at 48,000 x g for 10 minutes and the resulting tissue pellet was suspended in fresh cold buffer to yield a tissue concentration of 10 mg (wet weight)/ml. This tissue suspension was incubated for 30 minutes at 37° C. in the presence of adenosine deaminase (0.2 I.U./mg tissue). Following this incubation, the tissue suspension was centrifuged as before and the resulting pellet was suspended in fresh buffer at a concentration of 7-10 mg tissue (wet weight)/ml. Inhibition of the specific binding of [^3 H]CHA (New England Nuclear; 25 Ci/mmol) was examined in a total volume of 2 ml containing 50 mM Tris HCl, 7-10 mg of cortical tissue (1 ml of tissue suspension), 4 nM [^3 H]CHA and various concentrations of the test compounds. Nonspecific binding was determined in the presence of 10^-5 M 2-chloroadenosine. The binding reaction was carried out for 120 minutes at 23° C. and was terminated by vacuum filtration over Whatman GF/B filters using a Brandel M-48R Cell Harvester. The filters were washed 3 times with 3 ml of cold buffer and placed in scintillation vials in a Beckman LS 3801 scintillation counter. Dose-inhibition curves were generated with 10-12 concentrations of the test compound using triplicate incubations. The inhibition constants (Ki value) were calculated using EBDA, a log-logit iterative curve fitting program (McPhearson, Comput. Prog. Biomed. 107:220, 1983).

The target in another series is A2 receptor (Rattus norvegicus, UniProt P30543). Kind of series: biochemical. Particulars: Schild analysis; A2 receptor mediated stimulation of adenylate cyclase, PC12 membranes.
Series [2] has as its system NECA-induced depression of force and rate of an isolated guinea pig heart. Put plainly: NECA Depressed Langendorff Heart. The conditions noted are these: for IC50: guinea pig; for NECA - Depressed Langendorff Heart Force/Rate: ratio of force to rate TC50. Here is the method:
NECA Depressed Langendorff Heart. Hearts were rapidly excised from male guinea-pigs and transferred to a beaker containing a Krebs-bicarbonate solution at 5° C. Each heart was gently massaged to clear it of blood and clots, and the surrounding tissue was cut away. The cut aortic stump was secured to a glass cannula for retrograde perfusion of the coronary circulation.
Perfusion was at a constant rate of 5-7 ml/min, produced with a Holter peristaltic pump. […] Alterations in perfusion pressure arising from changes in coronary vascular resistance were recorded on a Gould recorder by means of Gould pressure transducers attached at a sidearm of the aortic cannula. Isometric contractions of the heart were recorded with a Grass transducer attached by a suture via a pulley to a clip on the apex of the ventricles. Rates of contraction were determined by counting heart beats.
Drugs were added directly into the perfusion solutions. Drug concentrations were changed by switching solutions. Cardiac functions were depressed with NECA or adenosine by infusing a solution of one or the other ([…]) into the perfusion solution through an injection port located immediately adjacent to the warming coil. IC50 is defined as the concentration of compound that will cause 50 percent inhibition of the NECA-induced depression of force and rate of an isolated guinea pig heart.

In the next series the target is T2, A1 receptor (Rattus norvegicus, UniProt P25099).
T2 sequence (P25099 1-326): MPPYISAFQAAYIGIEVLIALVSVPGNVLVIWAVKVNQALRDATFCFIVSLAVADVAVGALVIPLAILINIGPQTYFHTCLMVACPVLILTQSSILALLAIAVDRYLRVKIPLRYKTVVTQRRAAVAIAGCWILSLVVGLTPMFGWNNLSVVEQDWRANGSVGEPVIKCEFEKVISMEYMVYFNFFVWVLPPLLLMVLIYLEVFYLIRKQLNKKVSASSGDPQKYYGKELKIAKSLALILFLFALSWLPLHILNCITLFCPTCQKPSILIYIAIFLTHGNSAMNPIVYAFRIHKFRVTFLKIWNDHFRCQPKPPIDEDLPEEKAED
Kind of series: biochemical. The conditions noted are these: for Ki: Schild analysis, A1 receptor mediated inhibition of adenylate cyclase; for Adenylate cyclase A2 /A1: ratio of A2 Ki to A1 Ki.

The next series concerns animals. Particulars: in vivo; cited from earlier work.
A short description of series [3]: Solubility (mg/ml) 37° C.
The next series deals with adenosine (A1) receptor. Particulars: cited from earlier work.
Setting [4] is: 50 percent inhibition of the NECA-induced depression of force, read-out: NECA - Depressed Langendorff Heart TC50 Force.
[5] abbreviates: 50 percent inhibition of the NECA-induced depression of rate, read-out: NECA - Depressed Langendorff Heart TC50 Rate.

A2 receptor, sequence (P30543 whole entry): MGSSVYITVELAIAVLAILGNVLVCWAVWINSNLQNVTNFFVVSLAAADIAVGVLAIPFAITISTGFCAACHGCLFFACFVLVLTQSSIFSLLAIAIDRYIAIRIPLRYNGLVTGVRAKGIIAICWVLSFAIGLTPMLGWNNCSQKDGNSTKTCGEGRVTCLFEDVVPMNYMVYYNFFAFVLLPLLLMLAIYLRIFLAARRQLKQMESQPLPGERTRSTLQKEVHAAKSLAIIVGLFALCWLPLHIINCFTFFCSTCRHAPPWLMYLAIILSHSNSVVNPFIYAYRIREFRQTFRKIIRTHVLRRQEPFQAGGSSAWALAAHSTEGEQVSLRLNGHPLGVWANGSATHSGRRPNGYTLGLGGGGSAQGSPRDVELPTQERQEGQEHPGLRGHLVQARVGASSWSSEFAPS
Method for A1 receptor: The A1 receptor mediated inhibition of adenylate cyclase activity was measured by a modification of the procedure of Londos et al. (Proc. Natl. Acad. Sci. 75: 5362, 1978). Membrane protein (10-15 μg) was added to a reaction mixture containing a final concentration of 25 mM Tris-HCl (pH 7.4), 2 mM MgCl2 50 μM ATP, 50 μM cAMP, 1 mM dithiothreitol, 0.25 mg/ml BSA, 1 IU/ml adenosine deaminase, 5 mM creatine phosphate, 0.2 mg/ml creatine phosphokinase, 80 mM NaCl, [α^32 P]ATP (1.5 c 10^-6 DPM) and 100M GTP in 100 μl final volume. Incubations were carried out for 10 minutes at 24° C.
(§1) The Ki values for the test compounds were derived from Schild analysis as described by Tallarida et al. (Life Sciences 25: 637, 1979) in which the progressive shift in the dose response to a standard agonist was assessed using 3 concentrations of the test compound distributed over a 100-fold molar range. All incubations were performed in triplicate.
Method for A2 receptor: The A2 receptor mediated stimulation of adenylate cyclase was measured by a modification of the procedure of Premont et al. (Molec. Pharmacol. 16: 790, 1979). Typically, pheochromocytoma cell (PC12) membranes were thawed and added to a reaction mixture containing a final concentration of 25 mM Tris-HCl, pH 7.1, 1 mM MgCl2, 50 μM ATP, 50 μM cAMP, 0.1 mM papaverine, 0.4 IU/ml adenosine deaminase, 5 mM creatine phosphate, 0.2 mg/ml creatine phosphokinase, 10 μg membrane protein, [α^32 P]ATP (μ10^-6 DPM), 5 μM GTP, and various concentrations of adenosine agonists and/or antagonists in a final volume of 100 μl. The reaction was initiated with the addition of tissue and incubated 30° C. for 20 minutes. Reactions were terminated with 100 μl of 40 mM ATP, 1.4 mM cAMP and 2% SDS. ^32 P-cAMP isolated according to the procedure to the procedure of Salomon et al. (Adv. Cyclic Nucleotide Res. 10: 35, 1979).
as §1

Take `Cn1c(=O)c2[nH]c(-c3ccc(S(=O)(=O)O)cc3)nc2n(C)c1=O` [(II), 8-[4-sulfophenyl]-theophylline]: the “selectivity after introduction of the sulfonyl group” value in the series with adenosine receptors is given as “decrease in selectivity”. In addition, in the series with guinea pig thymocytes, the “potency relative to 8-phenyltheophylline” value is recorded as 3 fold.

A word on the Ki: it is the equilibrium dissociation constant of an inhibitor or competing ligand from its target. Low readings indicate a stronger hold on the target, high ones a looser hold on the target. In the case of `Cl.Cn1c(=O)c2[nH]c(-c3ccc(C(=N)N)cc3)nc2n(C)c1=O.O` [Me Me H C(NH)NH2, 1,3-Dimethyl-8-(4-amidinophenyl)xanthine hydrochloride hydrate], the Ki was 1140 nM in series [1], 523 nM at A2 receptor and 244 nM on A1 receptor. The IC50 came to 2010 nM in [2] (setting [4]) and 15600 nM in series [2] (setting [5]). For the same compound, the “NECA - Depressed Langendorff Heart Force/Rate” value in series [2] worked out at 0.13. Besides, on A1 receptor, the “Adenylate cyclase A2 /A1” value turned out to be 2.1.

In the case of `CNC(=N)c1ccc(-c2nc3c([nH]2)c(=O)n(C)c(=O)n3C)cc1` [Me Me H C(NH)NHMe, 1,3-Dimethyl-8-(4-N-methylamidinophenyl)xanthine hydrochloride hydrate], the Ki in series [1] worked out at 1840 nM. In addition, the figures for the IC50 in series [2] (setting [4]) and in [2] (setting [5]) were 3640 nM and 18400 nM, respectively. For the same compound, the “NECA - Depressed Langendorff Heart Force/Rate” value in series [2] amounted to 0.20.

A word on the solubility: it is how much of the substance goes into solution per volume. A higher solubility goes with a readily soluble substance. In the case of `CCCn1c(=O)c2[nH]c(-c3ccc(Cl)cc3N)nc2n(CCC)c1=O` [PACPX, reference compound], in the series with animals, the “overt activity in animals” value is on record as “little overt activity in animals”. Besides, the results for the Ki (in series [1]; on A2 receptor; at A1 receptor) were 45 nM, 421 nM and 12.6 nM, respectively. The compound further yielded a solubility in [3] below 0.4 µg/mL. Besides, the “force and rate properties / effect on force and rate of contraction (in words)” value in [2] (NECA depressed Langendorff heart, guinea pigs) is “unfavorable force and rate properties”. Also, the IC50 is 1110 nM in [2] (setting [4]) and 180 nM in series [2] (setting [5]). The “NECA - Depressed Langendorff Heart Force/Rate” value in [2] came out at 6.17. Further, the “Adenylate cyclase A2 /A1” value on A1 receptor is on record as 33.4. The “selectivity toward A1 adenosine receptor” value with adenosine (A1) receptor is “selective toward A1 --adenosine receptor”.

For the compound `CCCn1c(=O)c2[nH]c(-c3ccc(O)c(CN(C)C)c3)nc2n(CCC)c1=O` [Pr Pr CH2 NMe2 OH, 1,3-Dipropyl-8-(3-N,N-dimethylaminomethyl-4hydroxyphenyl)xanthine hydrochloride hydrate], the Ki in series [1] is 169 nM; at A2 receptor, 664 nM; at A1 receptor it was 88.7 nM. In [3], this compound displayed a solubility of 25000 µg/mL. Moreover, the IC50 in series [2] (setting [4]) worked out at 1490 nM; in [2] (setting [5]), 2060 nM. Moreover, the “NECA - Depressed Langendorff Heart Force/Rate” value in [2] was 0.72. Besides, the “Adenylate cyclase A2 /A1” value at A1 receptor was 7.

As for `CCCn1c(=O)c2[nH]c(-c3ccc(C(=N)N)cc3)nc2n(CCC)c1=O` [Pr Pr H C(NH)NH2, 1,3-Dipropyl-8-(4-amidinophenyl)xanthine hydrochloride hemi-hydrate], the Ki in series [1] is 81 nM; at A2 receptor it was 309 nM; at A1 receptor, 9.7 nM. For the same compound, in [3], the solubility came out at 3000 µg/mL. The IC50 was 1400 nM in [2] (setting [4]) and 7030 nM in series [2] (setting [5]). The “NECA - Depressed Langendorff Heart Force/Rate” value in series [2] is recorded as 0.20. Also, the “Adenylate cyclase A2 /A1” value at A1 receptor was determined as 31.9.

In the case of `CCCn1c(=O)c2[nH]c(-c3ccc(C(=N)NC)cc3)nc2n(CCC)c1=O` [Pr Pr H C(NH)NHMe, 1,3-Dipropyl-8-(4-N-methylamidinophenyl)xanthine hydrochloride hydrate], the results for the Ki (in series [1]; on A2 receptor; on A1 receptor) were 129 nM, 140 nM and 12 nM, respectively. This compound also gave a solubility in series [3] of 1000 µg/mL. In addition, the IC50 in [2] (setting [4]) is 1470 nM; in [2] (setting [5]), 3770 nM. Also, the “NECA - Depressed Langendorff Heart Force/Rate” value in series [2] is given as 0.39. Further, the “Adenylate cyclase A2 /A1” value at A1 receptor was 11.7.

As for `CCCn1c(=O)c2[nH]c(-c3ccc(CN)cc3)nc2n(CCC)c1=O.Cl.O` [Pr Pr H CH2 NH2, 1,3-Dipropyl-8-(4-aminomethylphenyl)xanthine hydrochloride hydrate], the Ki in series [1] was 66.8 nM; at A2 receptor it was 432 nM; on A1 receptor, 16.3 nM. In series [3], the solubility was 500 µg/mL. Besides, the results for the IC50 in series [2] (setting [4]) and in [2] (setting [5]) were 570 nM and 2000 nM, respectively. In series [2], the “NECA - Depressed Langendorff Heart Force/Rate” value is 0.28. Besides, the “Adenylate cyclase A2 /A1” value at A1 receptor is 26.

As for `CCCn1c(=O)c2[nH]c(-c3ccc(C(=O)OCC)cc3)nc2n(CCC)c1=O` [Pr Pr H COOEt, 1,3-Dipropyl-8-(4-carboethoxyphenyl)xanthine], the Ki in series [1] worked out at 423 nM; at A2 receptor, 529 nM; at A1 receptor, 26.9 nM. In addition, the IC50 came out at 4780 nM in series [2] (setting [4]) and 7840 nM in [2] (setting [5]). In addition, in series [2], the “NECA - Depressed Langendorff Heart Force/Rate” value came to 0.61. Moreover, the “Adenylate cyclase A2 /A1” value at A1 receptor amounted to 20.

Turning to `CCCn1c(=O)c2[nH]c(-c3ccc(NC(=O)N(C)C)cc3)nc2n(CCC)c1=O` [Pr Pr H NHC(=O)NMe2, 1,3-Dipropyl-8-(4-N,N-dimethylureidophenyl) xanthine], the values for the Ki (in series [1]; at A2 receptor) were 86 nM and 131 nM, respectively. This compound also gave a solubility in series [3] of 80 µg/mL (≈ 201 µM). The IC50 in series [2] (setting [4]) was 360 nM; in series [2] (setting [5]) it was 980 nM. For the same compound, the “NECA - Depressed Langendorff Heart Force/Rate” value in series [2] is reported as 0.61.

In series [3], `CCCn1c(=O)c2[nH]c(-c3cccc(OCC(O)CO)c3)nc2n(CCC)c1=O` (stereo not shown) [Pr Pr OCH2 (CH2 OH)2 H, 1,3-Dipropyl-8-[3-(2,3-dihydroxypropyloxy)phenyl]xanthine] gave a solubility of 250 µg/mL (≈ 621 µM). Also, the IC50 in series [2] (setting [4]) turned out to be 490 nM; in series [2] (setting [5]), 1040 nM. Further, the “NECA - Depressed Langendorff Heart Force/Rate” value in series [2] amounted to 0.47.
